Test results reported in US6737407B1, “Treatment of obesity” (Metabolic Pharmaceuticals, Ltd., priority 1997, dated 2004).
Bridges are numbered along the chain shown (N, C = ends). Where no end group is shown, it is not given here.

Experiments:
[1] = test system: adipose tissues from male Zucker fatty (fa/fa) rats; assay: In vitro glycerol release during lipolysis in isolated adipose tissue; type: cell-based, rat
Protocol: Adipose tissues were removed from animals and sliced into segments of approximately 200 mg each. Then the tissues were pre-incubated in 25 ml vials containing 2 ml of Krebs-Ringerbicarbonate (KRB) buffer, 4% defatted BSA and 5.5 mM glucose under an atmosphere of carbogen (95%O2/ 5%CO2) at 37° C. for 1 hour. Tissues were then transferred to another vials with fresh medium and the incubation was initiated by adding hGH 177-191 peptide or analogues into the vials. The mixtures were then incubated at 37° C. for 90 minutes. After incubation, the tissues wee removed and aliquots (200 μl) of samples withdrawn from the medium were assayed for the contents of glycerol or free fatty acid (FFA) either by the enzyme assay (glycerol kinase) or calorimetric (copper-dye) spectrometry. The NADH or color produced was then monitored by the absorption at 340 nm and 610 nm, respectively.

[2] = test system: adipose tissues from male Zucker fatty (fa/fa) rats; assay: In vitro inhibition of lipogenesis in isolated adipose tissue; type: cell-based, rat; conditions: for activity according to the in vivo and in vitro assay results (in words): structure-activity summary; for In vitro lipogenesis % of control / In vitro lipogenesis Activity / In vitro lipogenesis, rate of [C14]-glucose incorporation into [C14]-lipid: peptide 0.3 μM, insulin 0.1 mU/ml; for In vitro lipogenesis, rate of [C14]-glucose incorporation into [C14]-lipid: KRB buffer
Protocol: The rate of the incorporation of exogenous [C^14]-glucose into total lipid in adipose tissue was measured as the index of anti-lipogenic activity of hGH 177-191.
Adipose tissues were sliced into segments of approximately 200 mg each and then placed in Krebs-Ringer bicarbonate (KRB) buffer (pH 7.4) containing 2% defatted BSA, and glucose (0.1 mg/ml) and gassed with 95% O2-5% CO2 at 37° C. After 1 hr preincubation, the tissues were transferred to another 2 ml of fresh media containing [C^14]-glucose (final specific activity 0.05 μCi/μmol), and 0.3 μM of hGH 177-191 in the presence or absence of insulin (0.1 mU/ml) for a further 90 min incubation (conditions as above). Then the tissues were removed, washed thoroughly with KRB buffer and lipid was extracted with 5 ml of chlorofom/methanol (2:1, v/v) The extraction solution was washed with 2 ml of MeOH-H2O solution containing 0.1% MgCl2. A 2.5 ml aliquot of the washed extraction solution was taken and transferred to scintillation vials. The [C^14] radioactivity was measured with a liquid scintillation counter. The rates of total lipid synthesis were expressed as μmol [C^14]-glucose incorporated into lipid/g tissue/hr.

Substance | Glycerol release ([1]; peptide concentration 0.1 μM) [μmol/g tissue/hr] | Glycerol release ([1]; peptide concentration 1.0 μM) [μmol/g tissue/hr] | activity according to the in vivo and in vitro assay results (in words) [2] | In vitro lipogenesis % of control [2] | In vitro lipogenesis Activity [2] | In vitro lipogenesis, rate of [C14]-glucose incorporation into [C14]-lipid [2] [nmol/g tissue/hr]
9401 (LRIVQCRSVEGSCGF; listed as Homo sapiens) [compound 9401] | 1.82 ± 0.02 | 1.86 ± 0.12 |  |  |  | 
9404 (LRIVQCRSVEGSCGF-NH2; disulfide 6-13; N-terminus assumed; SMILES CC[C@H](C)[C@H](NC(=O)[C@H](CCCNC(=N)N)NC(=O)[C@@H](N)CC(C)C)C(=O)N[C@H](C(=O)N[C@@H](CCC(N)=O)C(=O)N[C@H]1CSSC[C@@H](C(=O)NCC(=O)N[C@@H](Cc2ccccc2)C(N)=O)NC(=O)[C@H](CO)NC(=O)CNC(=O)[C@H](CCC(=O)O)NC(=O)[C@H](C(C)C)NC(=O)[C@H](CO)NC(=O)[C@H](CCCNC(=N)N)NC1=O)C(C)C; listed as Homo sapiens) [compound 9404] | 1.75 ± 0.12 | 1.94 ± 0.12 |  |  |  | 
9407 (LRIVQCKSVEGSCGF; disulfide 6-13; listed as Homo sapiens) [compound 9407] | 1.83 ± 0.11 | 1.79 ± 0.07 | retains activity |  |  | 
9601 (LRIVQCRSVEGSCGA; disulfide 6-13; listed as Homo sapiens) [Compound 9601] |  |  |  | 76 % of control | Active | 185 ± 24
9602 (LRIVQCRSVEGSCAF; disulfide 6-13; listed as Homo sapiens) [Compound 9602] |  |  |  | 73 % of control | Active | 176 ± 27
9603 (LAIVQCRSVEGSCGF; listed as Homo sapiens) [Compound 9603] |  |  |  | 93 % of control | Inactive | 225 ± 18
9604 (YLRIVQCRSVEGSCGF; disulfide 7-14; listed as Homo sapiens) [Compound 9604] |  |  |  | 49 % of control | Active | 118 ± 16
9605 (KLRIVQCRSVEGSCGF; disulfide 7-14; listed as Homo sapiens) [Compound 9605] |  |  |  | 76 % of control | Active | 184 ± 41
9606 (LKIVQCRSVEGSCGF; disulfide 6-13; listed as Homo sapiens) [Compound 9606] |  |  |  | 77 % of control | Active | 187 ± 19
9606 (LKIVQCRSVEGSCGF; disulfide 6-13; listed as Homo sapiens) [compound 9606] |  |  | retains activity |  |  | 
9607 (ARIVQCRSVEGSCGF; disulfide 6-13; listed as Homo sapiens) [Compound 9607] |  |  |  | 82 % of control | Active | 198 ± 12
9608 (LRAVQCRSVEGSCGF; disulfide 6-13; listed as Homo sapiens) [Compound 9608] |  |  |  | 71 % of control | Active | 173 ± 12
9609 (LRIAQCRSVEGSCGF; disulfide 6-13; listed as Homo sapiens) [Compound 9609] |  |  |  | 78 % of control | Active | 188 ± 13
9610 (LRIVACRSVEGSCGF; disulfide 6-13; listed as Homo sapiens) [Compound 9610] |  |  |  | 79 % of control | Active | 192 ± 14
9611 (LRIVQARSVEGSCGF; listed as Homo sapiens) [Compound 9611] |  |  |  | 93 % of control | Inactive | 224 ± 19
9611 (LRIVQARSVEGSCGF; listed as Homo sapiens) [compound 9611] |  |  | inactive |  |  | 
9612 (LRIVQCRAVEGSCGF; disulfide 6-13; listed as Homo sapiens) [Compound 9612] |  |  |  | 79 % of control | Active | 191 ± 20
9613 (LRIVQCRSAEGSCGF; disulfide 6-13; listed as Homo sapiens) [Compound 9613] |  |  |  | 78 % of control | Active | 189 ± 16
9614 (LRIVQCRSVAGSCGF; listed as Homo sapiens) [Compound 9614] |  |  |  | 96 % of control | Inactive | 233 ± 13
9615 (LRIVQCRSVEASCGF; disulfide 6-13; listed as Homo sapiens) [Compound 9615] |  |  |  | 76 % of control | Active | 183 ± 17
9616 (LRIVQCRSVEGACGF; disulfide 6-13; listed as Homo sapiens) [Compound 9616] |  |  |  | 84 % of control | Active | 203 ± 19
9617 (LRIVQCRSVEGSAGF; listed as Homo sapiens) [Compound 9617] |  |  |  | 92 % of control | Inactive | 223 ± 16
9617 (LRIVQCRSVEGSAGF; listed as Homo sapiens) [compound 9617] |  |  | inactive |  |  | 
9618 (KKLRIVQCRSVEGSCGF; disulfide 8-15; listed as Homo sapiens) [Compound 9618] |  |  |  | 77 % of control | Active | 188 ± 19
